According to US12409176B2, “Methods of treating acute depression” (INTRA-CELLULAR THERAPIES, INC., priority 2018, dated 2025):

Legend:
[1] = biological target: serotonin transporter (SERT) (Homo sapiens, UniProt P31645); experiment: Comparative serotonin transporter (SERT) inhibition among antipsychotic agents (FIG. 3); type: biochemical; settings: FIG. 3, compared among antipsychotic drugs
[2] = Antidepressant-like behaviors in rodents; type: in vivo
[3] = system: mTORC1 signaling pathway (AKT Thr308, mTOR Ser2448, P70s6 kinase Thr389); experiment: mTOR signaling pathway phosphoprotein levels in prefrontal cortex (FIG. 7, 8); type: in vivo, rat; settings: for mTOR phosphorylation (Serine 2448) / p70s6K phosphorylation (Threonine 389) / phosphorylation of AKT at thr308: rat PFC; for mTOR phosphorylation (Serine 2448) / p70s6K phosphorylation (Threonine 389): lumateperone 3 mg/kg or ketamine 30 mg/kg i.p.; for mTOR phosphorylation (Serine 2448) / phosphorylation of AKT at thr308: 1 hour and 24 hours; for p70s6K phosphorylation (Threonine 389): over the 24 hour period; for phosphorylation of AKT at thr308: one i.p. injection, lumateperone 3 mg/kg or ketamine 30 mg/kg, vs saline
Procedure: It is known that upstream and downstream effectors of the mTOR (e.g., mTORC1) signaling pathway are increased in the mPFC of rats 1 hour and 24 hours after administration of the rapid-acting antidepressant ketamine.
Pre-frontal cortical phosphorylation levels of AKT (at Threonine 308), mTOR (at Serine 2448) or P70s6 kinase (at Threonine 389) are evaluated after normalization to total protein levels for each target, at both 1 hour and 24 hours. Results are shown as the percent relative change compared to placebo (saline).

[4] = system: mTORC1 signaling pathway (AKT Thr308, mTOR Ser2448, P70s6 kinase Thr389); experiment: as above; type: in vivo, rat; settings: adult rats; lumateperone 1 to 8 mg/kg i.p., ketamine 30 mg/kg; 60 min, 90 min or 24 hours
[5] = cited from earlier work
phosphor-mTOR = settings: single antidepressant-effective dose; prefrontal cortex and hippocampus of mice and rats; cited from earlier work
[6] = system: hippocampal cytokine mRNA (IL-1β, IL-6, TNFα, CCL2, IL-4, IL-10); experiment: LPS-induced stress: hippocampal cytokine mRNA by qPCR (FIG. 9, 10); type: in vivo, mice
Procedure: Male, C57/B16 mice (n=6-12/group) are divided into five groups-control (vehicle/saline), vehicle/LPS, and […] at three different doses of ITI-007. Mice are first injected i.p. with either vehicle (5% DMSO, 5% Tween, 15% PEG, 75% water) or ITI-007 at 0.3 mg/kg, 3.0 mg/kg or 8.0 mg/kg. The mice are then immediately injected s.c. with either 0.9% saline or with 500 μg/kg lipopolysaccharide (LPS) diluted in 0.9% saline. After two hours, the animals are sacrificed, and hippocampal slices are obtained and analyzed for cytokine mRNA using qPCR. The results are shown in FIG. 9, normalized to the control group using the delta ct method. […] The results are shown in FIG. 10, normalized to the control group.

[7] = system: hippocampal pro- and anti-inflammatory cytokine expression; experiment: Restraint stress: hippocampal cytokine expression by qPCR (FIG. 1); type: in vivo, mice; settings: 3 mg/kg i.p., 2 h restraint stress, not statistically significant
Procedure: (§1) Male, C57/B16 mice (n=6-7/group) are divided into three groups—control (vehicle alone, no stress), vehicle—stress (vehicle, i.p.), or ITI-007—stress (3 mg/kg, i.p. in vehicle). For induction of stress, mice are placed in a plastic “decapicones” and placed on the bottom of a warm, clean rodent cage for a 2 h period. These plastic “decapicones” produce an acute restraint stress which triggers neuroinflammation in both hippocampal tissue and peripherally (as shown by serum). At the end of the stress exposure, mice are killed; blood is taken for serum preparation and brain tissue for analysis. Serum is prepared from blood; cytokine measures are performed using MSD multiplex analysis. Brain tissue is analyzed by qPCR for pro-inflammatory cytokine mRNA expression.

[8] = system: serum cytokines (IL-1β, IL-6, TNF, IL-10, IFN-gamma); experiment: Restraint stress: serum cytokines by MSD multiplex (FIG. 2); type: in vivo, mice; settings: pre-treatment 3 mg/kg i.p., 2 h restraint stress
Procedure: as §1

[9] = system: NMDA receptor currents in mPFC pyramidal neurons; experiment: NMDA currents in mPFC slices, whole-cell patch clamp (FIG. 4); type: cell-based, rat
[10] = system: AMPA receptor currents in mPFC pyramidal neurons; experiment: AMPA currents in mPFC slices, whole-cell patch clamp (FIG. 5, 6); type: cell-based; settings: bath applied to rat mPFC slices, 3-100 nM, 5 min later
Description: Combined administration of the antipsychotic, olanzapine, and the SSRI, fluoxetine, similarly induces rapid antidepressant activity in humans and animals (Tohen et al., 2010); likewise, combined application of olanzapine and fluoxetine is required to induce AMPA receptor currents in vitro.

[11] = system: hippocampal gene expression; experiment: NanoString Mouse Neuropathology panel, hippocampal mRNA after LPS; type: in vivo, mice; settings: Lumateperone/LPS compared to vehicle/LPS, 3 mg/kg i.p., 2 hours
Procedure: Immediately after this injection, the mice are injected with either LPS (500 μg/kg diluted in 0.9% saline) or with 0.9% saline. After 2 hours, the mice are sacrificed, and hippocampal mRNA is obtained, as described in Example 1. Hippocampal RNA concentration and integrity are evaluated using an Agilent 2100 Bioanalyzer. Sample preparation, hybridization and detection are carried out according to NanoString manufacturer's instructions (NanoString technologies, WA). RNA (100 ng) expression profiling is performed using the nCounter NanoString Mouse Neuropathology panel, and data are analyzed using the nSolver software to produce and compare direct counts of mRNA. […] The neuropathology panel was developed to include genes of relevance for research in models of neurodegenerative and neurological disorders, such as Alzheimer's disease, Parkinson's disease, Amyotrophic Lateral Sclerosis, Frontotemporal Dementia, and Huntington's disease. The panel includes 770 genes associated with themes of neurotransmission, neuron-glia interaction, neuroplasticity, cell structure integrity, neuroinflammation and metabolism

[12] = Safety and tolerability in humans; type: in vivo
[13] = Symptoms of depression in patients with schizophrenia; type: in vivo, human
[14] = Clinical studies in acute exacerbated schizophrenia: emotional experience symptoms; settings: 60 mg P.O. once daily, up to 28 days; patients with acute exacerbated schizophrenia; two clinical studies
[15] = 0.3, 3.0 or 8.0 mg/kg i.p., co-injection with LPS 500 μg/kg s.c., 2 hours, FIG. 9

Sequence of serotonin transporter (SERT) (P31645 whole entry, species assumed): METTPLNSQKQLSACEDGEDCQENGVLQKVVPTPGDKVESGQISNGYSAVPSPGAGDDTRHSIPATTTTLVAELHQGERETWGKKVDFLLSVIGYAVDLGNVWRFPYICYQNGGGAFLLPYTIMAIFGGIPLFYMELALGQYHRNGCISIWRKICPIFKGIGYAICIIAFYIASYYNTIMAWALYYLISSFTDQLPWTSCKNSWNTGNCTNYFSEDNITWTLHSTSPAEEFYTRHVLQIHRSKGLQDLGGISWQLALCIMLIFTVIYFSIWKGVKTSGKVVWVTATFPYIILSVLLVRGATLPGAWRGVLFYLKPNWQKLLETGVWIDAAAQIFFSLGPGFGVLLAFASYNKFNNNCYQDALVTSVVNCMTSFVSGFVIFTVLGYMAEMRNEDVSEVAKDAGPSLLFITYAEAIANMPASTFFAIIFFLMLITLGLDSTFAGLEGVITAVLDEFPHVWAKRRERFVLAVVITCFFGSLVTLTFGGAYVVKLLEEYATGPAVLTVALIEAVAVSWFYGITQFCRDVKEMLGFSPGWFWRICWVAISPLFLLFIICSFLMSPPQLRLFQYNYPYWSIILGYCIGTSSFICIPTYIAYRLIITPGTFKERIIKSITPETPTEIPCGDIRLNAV

CN1CCN2c3c(cccc31)[C@@H]1CN(CCCC(O)c3ccc(F)cc3)CC[C@@H]12 (stereo partly drawn) [IC200131]
SERT inhibition [1]: high SERT inhibition | antidepressant-like behaviors [2]: elicit antidepressant-like behaviors

CNC1(c2ccccc2Cl)CCCCC1=O (stereo not drawn) [ketamine, reference compound]
mTOR phosphorylation (Serine 2448) [3]: Neither ketamine nor lumateperone results in a change | p70s6K phosphorylation (Threonine 389) [3]: transiently increase | phosphorylation of AKT at thr308 [3]: increase phosphorylation | activation of the mTORC1 signaling pathway in mPFC (p-Akt thr308, p-P70S6K) [4]: rapidly activates | ratings on the Hamilton Depression Rating Scale (HDRS) compared to placebo ([5]; 40-minute infusion, total dose 0.5 mg/kg, after 24 hours, Berman et al.): significantly improved ratings | onset of effects after intravenous infusion ([5]; intravenous infusion): ~4 h | persistence of effects ([5]; intravenous infusion): up to 2 weeks | onset of induction of phosphor-mTOR after administration (phosphor-mTOR): ≤ 30 min

CN1CCN2c3c(cccc31)[C@@H]1CN(CCCC(=O)c3ccc(F)cc3)CC[C@@H]12 [Lumateperone, 4-((6bR,10aS)-3-methyl-2,3,6b,9,10,10a-hexahydro-1H-pyrido[3′,4′:4,5]pyrrolo[1,2,3-de]quinoxalin-8(7H)-yl)-1-(4-fluorophenyl)-1-butanone]
SERT inhibition [1]: very high SERT inhibition | hippocampal inflammatory cytokine production, delayed dosing ([6]; 3.0 mg/kg, given 30 minutes after LPS, FIG. 10): suppresses inflammatory cytokine production | hippocampal anti-inflammatory cytokine mRNA (IL-4, IL-10) [6, 15]: significantly enhanced | hippocampal pro-inflammatory cytokine mRNA (IL-1β, IL-6, TNFα, CCL2) [6, 15]: significantly attenuated | hippocampal CCL2 and IL-10 levels [7]: elevated | hippocampal expression of pro-inflammatory cytokines by qPCR [7]: generally depressed | stress effects on serum IL-1ρ and IL-6 [8]: significantly attenuates | stress effects on serum TNF and IL-10 [8]: trends, but not statistically significant | NMDA currents ([9]; bath applied to rat mPFC slices, 3-100 nM, 5 min later): enhanced | effect on NMDA and AMPA currents in the presence of the D1 receptor antagonist SCH-23390 ([9]; lumateperone 30 nM, SCH-23390 1 μM): fully blocked | AMPA currents [10]: enhanced | duration of effect on phospho-protein levels at 24 hours ([3]; compared with ketamine 30 mg/kg): longer lasting effect compared with ketamine | AKT thr308 phosphorylation effect at 24 hours versus ketamine ([3]; lumateperone 3 mg/kg vs ketamine 30 mg/kg i.p., not declining in intensity (FIG. 8)): stronger at 24 hours than for ketamine | mTOR phosphorylation (Serine 2448) [3]: Neither ketamine nor lumateperone results in a change | p70s6K phosphorylation (Threonine 389) [3]: progressively increases | phosphorylation of AKT at thr308 [3]: increase phosphorylation | Linear Change, down-regulated genes: Ctns, Jun, Polr2l, Usp21, Csf1, Sirt1, Atf4, Fclrls [11]: 0.80-0.85 fold | Linear Change, down-regulated genes: Hc, Osmr [11]: <0.500-fold | Linear Change, down-regulated genes: Nfe2l2, Naglu, Pla2g4b, Npas4, Nos3 [11]: 0.75-0.80-fold | Linear Change, down-regulated genes: Ptgs2, Cp, Cntf, Tnfrsf1a, Il1R1 [11]: 0.5-0.75-fold | Linear Change, up-regulated gene: Cldn5 [11]: >1.5 fold | Linear Change, up-regulated genes: Egr1, Gata2, Olig2 [11]: 1.25-1.5 fold | Linear Change, up-regulated genes: Phf21a, Islr2, Ngf, Arrb2, Homer1, Notch1, Rapgef2, Pde4d [11]: 1.1-1.25 fold | Linear Change, up-regulated genes: Syt4, Adcy9, Gabrb2, Slc8a1, Inppf5, Scn1a, Pten, Crebbp [11]: 1.0-1.1 fold | antidepressant-like behaviors [2]: elicit antidepressant-like behaviors | safety and tolerability [12]: safe and well-tolerated | symptoms of depression [13]: improves symptoms of depression | activation of the mTORC1 signaling pathway in mPFC (p-Akt thr308, p-P70S6K) [4]: rapidly activates | symptoms of emotional experience compared to placebo [14]: significant and unexpected improvement
